Data reported in patent US12226400B2, “Neuroprotective disruption of Kv2.1/syntaxin interaction by small molecules” (UNIVERSITY OF PITTSBURGH-OF THE COMMONWEALTH SYSTEM OF …, priority 2018, dated 2025).

Legend:
[1] = tested on: rat primary culture cortical neurons; experiment: TBOA excitotoxicity assay (LDH release) in cortical neuron cultures; type: cell-based
Experimental: All animal protocols described here and below were approved by the Institutional Animal Care and Use Committee of the University of Pittsburgh School of Medicine. Cortical neurons were prepared from embryonic day 16-17 rats of either sex. Pregnant donor rats (Charles River Laboratories) were killed by gradual CO2 inhalation, an American Veterinary Medical Association approved protocol (Leary et al., 2013). Cortices were dissociated with trypsin, and plated at 670,000 cells per well on poly-L-ornithine glass coverslips in six-well plates. Non-neuronal cell proliferation was inhibited with 1-2 μM cytosine arabinoside at 15 days in vitro (DIV). All cortical culture experiments shown here were performed on 18-25 DIV cultures.
DL-threo-β-benzyloxaspartate (TBOA; Tocris Bioscience) excitotoxicity assays were performed on cortical culture coverslips transferred into 24-well plates containing 10 mM HEPES, 0.01% bovine serum albumin (BSA)-supplemented MEM without phenol red (MHB). […] Following this exposure, external medium was collected for LDH colorimetric measurements using a toxicity kit (Sigma-Aldrich), as previously described 12. Each experiment contained three replicates of four conditions (with/without TBOA, with/without treatment). Relative toxicity was quantified as the LDH ratio of TBOA-treated over vehicle control values within each experiment. […]

[2] = tested on: delayed rectifier K+ currents (Kv2.1-mediated) in rat cortical culture neurons; experiment: Whole-cell patch clamp of delayed rectifier K+ currents after TBOA; type: cell-based; details: Cpd5 incubation alone, 5 hours total
Experimental: Cortical culture electrophysiology. Whole-cell patch-clamp experiments were performed on rat cortical culture neurons prepared as described in the LDH toxicity experiments. The TBOA treatment was reduced in severity in this experiment to limit extensive cell injury that would prevent adequate patch clamp recordings. Prior to recording, coverslips were treated with 50 μM TBOA in MHB for 2 hr. The treatment was terminated with 3×MHB washes and transferring the coverslip to a separate well containing MHB to rest for 2 hr prior to electrophysiology recordings and to allow for the expression of enhanced currents. For cpd5-treated groups, cells were pre-incubated for 1 hr in 10 μM cpd5 prior to the addition of TBOA. Cpd5 was also present during the TBOA and the post-TBOA incubation phases.
Recordings were carried out using 1.5 mm diameter borosilicate glass electrodes (Sutter Instruments) made from a horizontal pipette puller at 5-7 MΩ. The internal solution contains (in mM): 100 K-gluconate, 10 KCl, 1 MgCl2, 1 CaCl2, 10 HEPES, 11 EGTA, 2.2 ATP, 0.33 GTP. The internal solution was further adjusted to pH 7.2 and to 280 mOsm with the addition of sucrose. The pH adjusted (7.2) external solution was composed of the following (in mM): 115 NaCl, 2.5 KCl, 2.0 MgCl2, 10 HEPES, 10 D-glucose, and 0.25 μM TTX. […]

[3] = tested on: layer 2/3 corticocallosal neuron AMPAR EPSCs; experiment: Slice electrophysiology, evoked AMPAR EPSCs in auditory cortex layer 2/3 corticocallosal neurons; type: cell-based, mouse
Experimental: Stereotaxic injections for electrophysiology. Male or female ICR mice P21-30 (Jackson Laboratory) were anesthetized with 3% isoflurane (1.5% maintenance) and placed on the stereotaxic frame (Kopf). Core body temperature was maintained at ˜37° C. with a heating pad and eyes were protected with ophthalmic ointment. Lidocaine (1%) was injected under the scalp and an incision was made into the skin at the midline to expose the skull. […] A volume of ˜0.12 μl fluorospheres was pressure injected (25 psi, 10 ms duration) from capillary pipettes (Drummond Scientific) with a Picospritzer (Parker-Hannifin). After injection, the pipette was held in the brain for 2 min before slowly withdrawing. The scalp of the mouse was closed with cyanoacrylate adhesive. […] Mice were monitored for signs of postoperative stress and pain.
Slice electrophysiology. […] Pipette capacitance was compensated and series resistance for recordings was lower than 15 MΩ and measured throughout the experiments. […]
To evoke AMPAR EPSCs, auditory cortex layer 2/3 neurons were stimulated locally with an Isoflex stimulator (AMPI), through a glass theta electrode containing ACSF, by a single 0.15 ms duration electrical pulse every 30 sec. AMPAR EPSCs were recorded in voltage clamp mode at −70 mV (peak values were averaged over a 0.3 ms time window). […]

COc1ccc(CNC(=O)Nc2cccc(-c3nc4ccccc4s3)c2)cc1OC [cpd5, 3-[3-(1,3-benzothiazol-2-yl)phenyl]-1-[(3,4-dimethoxyphenyl)methyl]urea]
TBOA toxicity (neuroprotection) ([1]; 10 μM Cpd5, pre-loading 1 hr and co-incubation, overnight TBOA 60 μM): significantly diminished TBOA toxicity
relative toxicity (LDH ratio of TBOA-treated over vehicle control) ([1]; 10 μM compound, 1 hr preincubation and coincubation, 75 μM TBOA, 24 hr, mean±SEM): 1.84±0.42
basal K+ current densities [2]: no significant effects
AMPAR EPSCs amplitude normalized to control ([3]; 10 μM cpd5, p=0.153): 97.6±0.9%
threshold, amplitude or duration of evoked synaptic potentials ([3]; Cpd5 10 μM, cortical layer 2/3 projection neurons, acute slices): No significant differences
